{
  "source": "patent US20260085315A1",
  "about": "“POLYNUCLEOTIDE COMPOSITIONS AND METHODS FOR TREATMENT OF CANCER” (APTAH BIO, INC., priority 2023, published 2026)",
  "key": {"U-87MG cell line": {"test_system": "U-87MG cell line", "experiment": "MTT cytotoxicity assay on human cancer cell panel (Example 2)", "type": "cell-based", "details": "0.03-30 μM, 0.1% FBS", "method": "(§1) Cell lines were maintained in growth medium with 10% of Fetal Bovine Serum (FBS) until the time of the experiments. Cells were sub-cultured by trypsinization and splitting the cell suspension into fresh flasks and supplementing with fresh culture medium. To perform the assay, the cells were trypsinized, neutralized with complete medium (10% FBS), centrifuged, counted with assistance of a hemocytometer, and plated with the respective media with 10% FBS. Cell lines were plated at a density of 1×10^4 cells per well, other than the SH-SY5Y cell line which was plated at a density of 2.5×10^4. The preparation of the different experimental groups was done with 0.1% FBS (U87MG, MCF-7, SH-SY5Y and 786-O) and 1% FBS (PC-3). The untreated cells were used as negative control (medium only). After 24, 48, 72 and 96 hours of incubation, the effect of ASMO1 and controls on cytotoxicity of cells was determined by MTT assay.\n(§2) Briefly, plates were taken out and 20 μl of 5 mg/ml of MTT 3-(4,5-dimethythiazol-2-yl)-2,5-diphenyl tetrazolium bromide solution was added to all the wells. Cells were incubated for 3 h at 37° C. After this period, supernatant was aspirated and 100 μl of DMSO was added to each well to dissolve formazan crystals. The absorbance of each well was then read at 540 nm using Synergy HT microplate reader.\n(§3) Cells were plated and treated with 7 different concentrations (0.03, 0.1, 0.3, 1, 3, 10 and 30 μM) of APT20TTMG with medium (0.1% FBS). MTT assay was performed in 4 distinct times and graphs are represented as absorbance (540 nm). (A) 24 hours of incubation. (B) 48 hours of incubation. (C) 72 hours of incubation. (D) 96 hours of incubation."}, "MCF-7 cell line": {"test_system": "MCF-7 cell line", "experiment": "MTT cytotoxicity assay on human cancer cell panel (Example 2)", "type": "cell-based", "details": "24, 48, 72, 96 hours; 0.03-30 μM; 0.1% FBS", "method": "as §1, §2, §3"}, "SH-SY5Y cell line": {"test_system": "SH-SY5Y cell line", "experiment": "Mitochondrial membrane potential", "type": "cell-based, Human", "details": "all treatments vs non-treated cells"}, "[1]": {"test_system": "neuroblastoma cell line SH-SY5Y", "experiment": "Kinetics of internalization", "type": "cell-based, Human", "details": "all evaluated times"}, "U87-MG cell line": {"test_system": "U87-MG cell line", "experiment": "Distribution of cell cycle phases", "type": "cell-based, Human", "details": "0.25 μM, 48 hours", "method": "The methodologies for this Example are the same as shown in Example 4.\nCells were plated and treated with 3 different concentrations (0.25, 0.5, and 1 μM) of APT20TTMG and cell cycle phases were evaluated after 48 hours of incubation. Cell proliferation is regulated by cell cycle progression. Phases: Sub/G1: non-proliferative state (quiescence); G1/G0: cell growth; S: DNA replication; G2/M: DNA segregation and mitosis. Results were expressed as Mean Standard Error of three independent experiments."}, "TAU protein": {"test_system": "TAU protein", "experiment": "Tau quantification by Western blot in SK-N-SH", "type": "cell-based", "details": "0.5 μM", "method": "FIG. 27A-27B illustrates MAPT expression and tau quantification obtained after 24, 48, 96 and 144 hours of incubation with ASMO1 (0.5 μM) in neuroblastoma cell line.\nCells were rinsed once with ice-cold PBS, collected, and pelleted by centrifugation at 2500 g for 5 minutes at 4° C. Each sample was re-suspended and lysed in 50 μl ice-cold radioimmunoprecipitation assay (RIPA) buffer (Thermo Fisher Scientific, USA) containing EDTA-free Halt protease and phosphatase inhibitor cocktail mixture (Thermo Fisher Scientific, USA) for 20 min at 4° C. To increase protein yields, each sample was homogenized using a 29 G×13 mm needle and syringe. Cell lysates were clarified by centrifugation at 17,000 g for 15 minutes at 4° C. Supernatants were collected and total protein concentration was determined using the BCA protein assay kit (Thermo Fisher Scientific, USA) according to the manufacturer's instructions. 15 μg of total protein in cell lysates were denatured in NuPAGE LDS sample buffer (Thermo Fisher Scientific, USA) with NuPAGE sample reducing agent (DTT; Thermo Fisher Scientific, USA) and boiled at 90° C. for 5 minutes. […] Densitometry using Image J (v1.48k; NIH) was performed and all quantification was standardized against vinculin levels."}, "[2]": {"test_system": "Human Glioblastoma Cancer (U-87MG) xenograft", "experiment": "Histopathology of tumor samples with scoring", "type": "in vivo, athymic nude mice", "design": "key: 4: Minimal; 3: Mild; 2: Moderate; 1: Prominent", "details": "individual animals; G3 APT20TTMG, G2 TMZ", "excerpt": "The fixed tissues were processed for routine paraffin embedding followed by sectioning (3-6 micron). The sections were stained with hematoxylin and eosin. The prepared slides were examined under microscope by the study pathologist to record histopathological findings in tumor samples, related to capsule formation, cell type, connective tissue stroma, apoptosis, necrosis, lipid content, nucleus-to-cytoplasmic (N:C) ratio, nuclei mitotic figures, tumor grade, and level of differentiation. Each histopathological finding and tumor volume were assigned a score ranging from 1 to 4 (Table 7). The sum of these scores for each sample was used to infer the tumor aggressiveness."}},
  "note": "“And” between values parts separate entries of the source, which are not always exact repeats. Equal entries are not always repeated. d = 2'-deoxy (DNA); m = 2'-O-methyl",
  "data": [
    {"substance": "APT20TTMG: engineered polynucleotide ASMO1, 24 nt, SEQ ID NO: 3 gtccactaacctttcaggccagcg; targeting moieties 5′-GTCCA-3′ and 5′-CG-3′, U1 snRNP recruiting moiety (GTCCACTAACCTTTCAGGCCAGCG; sugars from the 5' end m5 d14 m5, all phosphorothioate, methylation of C and T or U not given here)", "values": [
      {"measurement": "cell viability (MTT, absorbance 540 nm)", "setting": "U-87MG cell line; 72 and 96 hours", "value": "like those of the vehicle group"},
      {"measurement": "cell viability (MTT, absorbance 540 nm)", "setting": "U-87MG cell line; 24 hours, vs negative control and vehicle", "value": "trend of reduction in cell viability"},
      {"measurement": "cell viability (MTT, absorbance 540 nm)", "setting": "U-87MG cell line; 48 hours", "value": "reduction in absorbance values"},
      {"measurement": "cytotoxic or cytostatic effect (MTT)", "setting": "MCF-7 cell line", "value": "does not exert a cytotoxic or cytostatic effect"},
      {"measurement": "mitochondrial membrane potential", "setting": "SH-SY5Y cell line", "value": "no change in mitochondrial membrane potential"},
      {"measurement": "internalization", "setting": "[1]", "value": "around 50%"},
      {"measurement": "cells in G1/G0 phase", "setting": "U87-MG cell line; p=0.0036", "value": "reduction in retention"},
      {"measurement": "cells in G2/M phase", "setting": "U87-MG cell line; p=0.0425", "value": "increase in retention"},
      {"measurement": "reduction of tau protein quantification", "setting": "TAU protein; first of 'the two highest concentrations' as printed (parallel to 96 h)", "value": "40±13.3", "unit": "%"},
      {"measurement": "reduction of tau protein quantification", "setting": "TAU protein; second of 'the two highest concentrations' as printed (parallel to 144 h)", "value": "46±14.3", "unit": "%"},
      {"measurement": "Score: Mitotic figures", "setting": "[2]", "value": 2},
      {"measurement": "Score: Necrosis", "setting": "[2]", "value": "3 and 2"}
    ]}
  ]
}
